Data on one compound can be found in patent US10253356B2, “Visualizing modified nucleotides and nucleic acid interactions in single cells” (SIGMA-ALDRICH CO. LLC, priority 2014, dated 2019).

Data set [1] deals with SEPTIN 9 promoter methylation in SW480 cells. In words: ISH-PLA visualization of SEPTIN 9 promoter methylation after drug treatment. Type of data set: cell-based, human. Conditions: SW480 colon cancer cells, 500 nM for 24 hours, SEPTIN 9 probe set (ii), FIG. 5.
Method: With this aim, a protocol was developed to perform in-situ hybridization followed by proximity ligation assay (PLA) (a.k.a., DUOLINK®, Sigma-Aldrich) and cell imaging to visualize DNA-methylation (5 meC) on the SEPTIN 9 promoter. […] The PLA assay was performed using anti-biotin and anti-5 meC antibodies, corresponding (+ and −) PLA probes, and Far Red detection reagents.
Human cancer cells, i.e., DU145 (metastatic cancer; origin in prostrate migrated to brain) or SW480 (colon cancer), were grown in DMEM (Dulbecco's Modified Eagle's Medium) supplemented with 10% FBS and Pen/Strep antibiotics, and seeded (˜10^4 cells) per well of 8-well culture chambered coverglass plates (with silicone gasket). The cells were washed twice with HBSS, and then fixed with 4% paraformaldehyde solution (40 μL/well, 16% paraformaldehyde stock diluted 1:4 in 1×PBS) for 30 minutes at room temperature (RT). The crosslinking was stopped by adding 5 μL/well of 1.25M Glycine, and incubating at RT for 5 minutes. The cells were permeabilized by incubation for 1 hour at RT with permeabilization buffer (0.75% Tween 20 and 0.75% Triton X-100 in 1×PBS). The cells were rinsed with 1×PBS. For detection of 5-meC DNA, the cells were treated with 4 N HCL for 10 minutes at RT. The cells were washed with 1×PBS for 30 min at RT. […]
The test system of data set [2] is SW480 cells. Kind of data set: Cytotoxic effects (cell shape) seen in drug-treated cells during ISH-PLA imaging. Type of data set: cell-based, human. Conditions: 500 nM for 24 hours, a few drug treated cells.
Method: Human cancer cells, i.e., DU145 (metastatic cancer; origin in prostrate migrated to brain) or SW480 (colon cancer), were grown in DMEM (Dulbecco's Modified Eagle's Medium) supplemented with 10% FBS and Pen/Strep antibiotics, and seeded ( 10^4 cells) per well of 8-well culture chambered coverglass plates (with silicone gasket). The cells were washed twice with HBSS, and then fixed with 4% paraformaldehyde solution (40 μL/well, 16% paraformaldehyde stock diluted 1:4 in 1×PBS) for 30 minutes at room temperature (RT). The crosslinking was stopped by adding 5 μL/well of 1.25M Glycine, and incubating at RT for 5 minutes. The cells were permeabilized by incubation for 1 hour at RT with permeabilization buffer (0.75% Tween 20 and 0.75% Triton X-100 in 1×PBS). The cells were rinsed with 1×PBS. For detection of 5-meC DNA, the cells were treated with 4 N HCL for 10 minutes at RT. The cells were washed with 1×PBS for 30 min at RT. The cells were treated for 1 minute with pre-warmed (37° C.) 0.25% Trypsin-EDTA solution, and the trypsin was inactivated by incubating for 2 minutes in pre-warmed (37° C.) quenching solution (i.e., DMEM supplemented with 10% FBS and 3 mg/mL BSA). The cells were washed with 1×PBS and blocked with an in situ hybridization blocking solution for 1 hour at RT.

Consider `Nc1ncn([C@@H]2O[C@H](CO)[C@@H](O)[C@H]2O)c(=O)n1` [5-Azacytidine], for which the “SEPTIN 9 promoter methylation (nuclear ISH-PLA signal)” value is “Loss of this nuclear ISH-PLA signal” in data set [1] and “diminished” in data set [1] (listed as 5-AzaC). Further, the “cytotoxic effects (altered cellular shape)” value in data set [2] is “cytotoxic effects in terms of altered cellular shape”.
